This is an account of results in paper PMC10383195, “Interactions of the Kv1.1 Channel with Peptide Pore Blockers: A Fluorescent Analysis on Mammalian Cells” (Membranes, 2023).

Numbered stars: 1 amine (or outer) side, 2 acyl side, 3 side chain; on linkers, the order of the positions; unused ones are H or OH. Bridge positions count the residues as written; N and C are the ends. Square brackets hold non-standard residues; d marks the D form. Peptide text beside a SMILES is read from it. * marks the point of attachment. X1 = N=c1ccc2c(-c3ccccc3C(=O)*)c3ccc(N)c(S(=O)(=O)O)c3oc-2c1S(=O)(=O)O; NMeGABA = CN(CCCC(=O)[*:2])[*:1]

Assay [1] concerns Kv1.1 channel. As to conditions: concentrations up to 25 nM; cited from earlier work. From the text:
Ce1 is a member of the α-KTx2 subfamily of scorpion toxins and is a close homolog of the well-studied toxins HgTx1, MgTx, and noxiustoxin (NTx, Table 3). […] Thus, Ce1 surpasses the closest homolog NTx in affinity for Kv1.1, but inferiors MgTx and especially HgTx in this characteristic (Table 2).

The target of assay [2] is T1, K-Kv1.1 channel (hKv1.1S369T with mKate2) (Homo sapiens, UniProt Q09470, S369T).
T1 construct: these fragments were combined and amplified using terminal primers to obtain the whole mutated gene; expressed in transfected cells; host or cells: mouse neuroblastoma Neuro2a cells, transient transfection with pmKate2-KCNA1m1
Put plainly: Whole-cell patch-clamp of currents through K-Kv1.1 in Neuro2a cells. The assay is classed as cell-based. Here is the method:
Membrane ion currents through the K-Kv1.1 channel were recorded at room temperature by the patch-clamp technique using the standard whole-cell configuration as described earlier.
Briefly, Neuro2a cells attached to coverslips (10 mm in diameter) pre-coated with poly-D-lysine were immersed in a buffer (140 mM NaCl, 2.8 mM KCl, 2 mM MgCl2, 2 mM CaCl2, 10 mM glucose, 10 mM HEPES, pH 7.4) and perfused continuously. Micropipettes with a tip resistance of 6–8 MΩ were filled with a pipette solution containing 140 mM KCl, 6 mM CaCl2, 2 mM MgCl2, 2 mM MgATP, 0.4 mM NaGTP, 10 mM HEPES, 20 mM BAPTA/KOH (pH 7.3). The patches were routinely held at a holding potential of −40 mV. The potential was changed from −70 to +70 mV (20 mV step) using 200 ms pulses, which were applied incrementally with an interval of 20 s. Finally, the potential returned to the holding potential.
Cells were measured 24–48 h after transfection. The cells were selected by K-Kv1.1 fluorescence. The cells were analyzed if their input resistance was more than 350 MΩ. The currents were recorded using an EPC-10 amplifier (HEKA Elektronik, Stuttgart, Germany).
[…] The toxins were dissolved in a complete medium.
The measured concentration dependence of current inhibition through the K-Kv1.1 channel by A-HgTx was analyzed with the following equation:Irel(L) = 100/(1 + (IC50/L)^h) (1) where Irel is a decrease in current (%), L is the concentration of A-HgTx, IC50 is the concentration of A-HgTx that induces a 50% decrease in current, and h is the Hill coefficient.
A general note: The patch-clamp technique gives a direct electrical read-out from membranes.

Assay [3] concerns the target Kv1.3 channel. The following applies: read-out: Kd of A-HgTx with Kv1.3 channel; cited from earlier work.
The target in assay [4] is T2, mKate2-tagged human Kv1.1 (S369T) channel (K-Kv1.1) (Homo sapiens, UniProt Q09470, S369T).
T2 construct: these fragments were combined and amplified using terminal primers to obtain the whole mutated gene; expressed in transfected cells; host or cells: mouse neuroblastoma Neuro2a cells, transient transfection with pmKate2-KCNA1m1
Description: Competitive binding of peptide pore blocker and A-HgTx to K-Kv1.1 on the plasma membrane of Neuro2a cells (confocal microscopy). As to conditions: A-HgTx (2 nM) displacement compared in complete medium, Na+ and K+ buffers. Here is the method:
To analyze the binding of A-HgTx, A-HgTx (0.25–4 nM) was added to cells in a complete medium for 60 min. To analyze competitive binding, A-HgTx (2 nM), together with the selected peptide (0.05–160 nM), was added to cells in a complete medium for 60 min.
To compare ligand binding with closed and open channels, ligands were added to cells (60 min, 37 °C) in a buffer (20 mM HEPES pH 7.4, 0.9 mM CaCl2, 0.5 mM MgCl2, 0.1% BSA) supplemented with 4 mM KCl and 150 mM NaCl (Na^+ buffer) or with 150 mM KCl (K^+ buffer).
The fluorescence of the K-Kv1.1 and K-Kv1.1wt channels was excited at 561 nm and detected in the 650–700 nm region. A-HgTx fluorescence was excited at 488 nm and detected in the 495–535 nm region. Sequential scanning was used to measure the cellular distributions of A-HgTx and mKate2 fluorescence in order to avoid interference of mKate2 fluorescence with cellular autofluorescence excited at 488 nm.
Quantitative analysis of the interaction of A-HgTx with K-Kv1.1 was carried out in accordance with the procedure developed previously for A-HgTx and the fluorescently labeled Kv1.3 channel. Briefly, the regions of interest with K-Kv1.1 on the plasma membrane were selected in the confocal images and used to create binary (0;1) masks that described the membranous distribution of K-Kv1.1. The confocal images of K-Kv1.1 and A-HgTx were multiplied by the corresponding mask, and the average fluorescence intensities of A-HgTx (Ili) and K-Kv1.1 (Ici) corrected for the background signal were calculated for each i-cell. Ratio Ri = Ili/Ici was calculated and averaged over 15–20 cells to obtain the Rav value and the standard deviation.
To analyze the competitive binding of the studied peptide pore blocker and A-HgTx to K-Kv1.1 on the cellular membrane, Rav data were plotted depending on the blocker concentration (C) at the constant A-HgTx concentration (L) and fitted with the following equation:Rav(C) = Rav0/(1 + C/DC50)(3) where DC50 is the blocker concentration displacing 50% of A-HgTx from the complex with K-Kv1.1, and Rav0 is Rav at C = 0.
The apparent dissociation constant (Kap) of the complex between the studied blocker and the K-Kv1.1 channel was calculated using the Cheng–Prusoff equation:Kap = DC50/(1 + L/Kd).(4)
Two independent experiments were performed, and the Kav data were averaged and presented as mean ± SEM. Fifteen to twenty-five treated cell images were the average value for each point on the curves of A-HgTx binding to the K-Kv1.1 channel.

For assay [5], the system named is Kv1.3 channel. The following applies: cited from earlier work. Here is the method:
Exploring the potential of this analytical system, we have measured the Kap of the complex between the recombinant peptide Ce1 and the Kv1.1 channel (Figure 8c, Table 2) and classified Ce1 as a moderately active ligand of this channel. Toxin Ce1 was found in the venom of the scorpion Centruroides elegans and characterized as a high-affinity pore blocker of the Kv1.3 channel (IC50 = 0.7 nM). Its activity for the Kv1.1 channel was not previously reported.

T1 sequence (Q09470 whole entry S369T, the tested form may be a part): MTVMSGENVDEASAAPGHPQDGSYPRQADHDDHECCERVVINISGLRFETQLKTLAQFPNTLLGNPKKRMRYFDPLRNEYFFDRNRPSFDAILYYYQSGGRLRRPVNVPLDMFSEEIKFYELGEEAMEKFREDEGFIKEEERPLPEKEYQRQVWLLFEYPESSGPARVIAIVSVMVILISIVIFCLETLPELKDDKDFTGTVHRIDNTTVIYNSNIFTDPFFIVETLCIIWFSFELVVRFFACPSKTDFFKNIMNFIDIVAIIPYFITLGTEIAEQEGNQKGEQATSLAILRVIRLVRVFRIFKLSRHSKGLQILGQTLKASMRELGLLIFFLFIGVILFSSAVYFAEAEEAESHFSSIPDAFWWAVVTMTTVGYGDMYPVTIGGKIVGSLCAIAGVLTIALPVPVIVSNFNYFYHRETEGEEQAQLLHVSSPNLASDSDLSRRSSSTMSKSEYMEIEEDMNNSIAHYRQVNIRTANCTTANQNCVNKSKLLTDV
T2 sequence (Q09470 whole entry S369T, the tested form may be a part): as above

On to noxiustoxin [NTx], for which, in assay [1], the “block of the Kv1.1 channel” value is recorded as “does not block”.
The term Kd denotes the concentration at which binding is half-saturated. Turning to `CC[C@H](C)[C@@H]1NC(=O)CNC(=O)[C@H](Cc2ccccc2)NC(=O)[C@H](CCC(N)=O)NC(=O)[C@H](C)NC(=O)[C@H](CCCCN)NC(=O)[C@@H]2CSSC[C@@H](C(=O)N[C@@H](Cc3ccc(O)cc3)C(=O)N3CCC[C@H]3C(=O)N[C@@H](Cc3c[nH]cn3)C(=O)O)NC(=O)[C@H](CCCCN)NC(=O)[C@@H]3CSSC[C@H](NC(=O)[C@H](CCC(N)=O)NC(=O)[C@H](CCCCN)NC(=O)[C@@H]4CCCN4C(=O)[C@H](CO)NC(=O)[C@H]([C@@H](C)O)NC(=O)[C@@H](NC(=O)[C@H](CCCCN)NC(=O)[C@@H](NC(=O)[C@H](CC(=O)O)NC(=O)[C@@H](NC(=O)[C@@H](NC(=O)[C@@H](NC(=O)CCCN(C)C(=O)c4ccccc4-c4c5ccc(=N)c(S(=O)(=O)O)c-5oc5c(S(=O)(=O)O)c(N)ccc45)[C@@H](C)O)C(C)C)[C@@H](C)CC)C(C)C)CSSC[C@H](NC(=O)[C@H](CCCCN)NC(=O)[C@H](C)NC(=O)CNC(=O)[C@H](C)NC(=O)[C@H](CCCNC(=N)N)NC1=O)C(=O)N[C@@H](CCSC)C(=O)N[C@@H](CC(N)=O)C(=O)NCC(=O)N[C@@H](CCCCN)C(=O)N3)C(=O)N[C@@H](CC(C)C)C(=O)N1CCC[C@H]1C(=O)N1CCC[C@H]1C(=O)N2` [A-HgTx] (X1-[NMeGABA]TVIDVKCTSPKQCLPPCKAQFGIRAGAKCMNGKCKCYPH-OH; disulfide 8-30, 14-35, 18-37; C-terminus assumed), in assay [2] (5 nM A-HgTx, applied voltage from −30 to 70 mV), the “decrease in the amplitude of the current through K-Kv1.1” value is recorded as roughly 50%. Besides, the IC50 in assay [2] (+50 mV voltage, mean ± SEM (n = 6), SEM, read-out: IC50 (concentration of A-HgTx inhibiting current by 50%)) stood at 4.8 ± 0.2 nM. For the same compound, the maximum current inhibition result in assay [2] (+50 mV, A-HgTx above 15 nM) is recorded as “ca. 75%”. For the same compound, in assay [3], the Kd is 0.3 ± 0.13 nM.
As to `CC[C@H](C)[C@H](NC(=O)[C@@H](NC(=O)[C@@H](N)[C@@H](C)O)C(C)C)C(=O)N[C@@H](CC(N)=O)C(=O)N[C@H](C(=O)N[C@@H](CCCCN)C(=O)N[C@H]1CSSC[C@@H]2NC(=O)[C@H](CCCCN)NC(=O)[C@H](C)NC(=O)CNC(=O)[C@H](C)NC(=O)[C@H](Cc3c[nH]cn3)NC(=O)[C@@H]3CCCN3C(=O)CNC(=O)[C@H](Cc3ccc(O)cc3)NC(=O)[C@H](CC(C)C)NC(=O)[C@H](CC(=O)O)NC(=O)[C@H](CCCCN)NC(=O)[C@@H]3CSSC[C@@H](C(=O)N[C@@H](Cc4ccc(O)cc4)C(=O)N[C@@H](CC(N)=O)C(=O)N[C@@H](CC(N)=O)C(=O)O)NC(=O)[C@H](CCCCN)NC(=O)[C@H](CSSC[C@H](NC(=O)[C@H](CCC(N)=O)NC(=O)[C@H](CCCCN)NC(=O)[C@@H]4CCCN4C(=O)[C@H](CO)NC(=O)[C@H]([C@@H](C)O)NC1=O)C(=O)N[C@@H](CC(C)C)C(=O)N[C@@H](CCCCN)C(=O)N1CCC[C@H]1C(=O)N3)NC(=O)[C@H](CCCCN)NC(=O)CNC(=O)[C@H](CC(N)=O)NC(=O)[C@H](CCSC)NC2=O)C(C)C` [Ce1] (H-TVINVKCTSPKQCLKPCKDLYGPHAGAKCMNGKCKCYNN-OH; disulfide 7-29, 13-34, 17-36 (inferred); N-terminus and C-terminus assumed), in assay [4], the “effect of channel state (closed or open) on affinity of K-Kv1.1 for the peptide” value is given as “does not affect the affinity”. Further, the IC50 in assay [5] is 0.7 nM.
